In ChEMBL document CHEMBL1909046, “DrugMatrix in vitro pharmacology data”:

Tests used:
[1] = DRUGMATRIX: Nicotinic Acetylcholine radioligand binding (ligand: [125I] Epibatidine); type: cell membranes, Membrane; settings: imr-32; Not Active = under 50% inhibition at 10 µM
[2] = molecular target: Prostaglandin G/H synthase 1 (Homo sapiens, UniProt P23219); assay: biochemical; type: tissue-based, Platelet;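 further: inhibition of COX-1 enzyme activity, with arachidonic acid supplied as substrate; in other assays of this panel Not Active means under 50% inhibition at 10 µM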
[3] = molecular target: T1, Interstitial collagenase (Homo sapiens, UniProt P03956); assay: biochemical; type: tissue-based, Rheumatoid synovial fibroblasts;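 further: MMP-1 enzyme inhibition assay using a peptide substrate; in other assays of this panel Not Active means under 50% inhibition at 10 µM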
T1 sequence (P03956 whole entry): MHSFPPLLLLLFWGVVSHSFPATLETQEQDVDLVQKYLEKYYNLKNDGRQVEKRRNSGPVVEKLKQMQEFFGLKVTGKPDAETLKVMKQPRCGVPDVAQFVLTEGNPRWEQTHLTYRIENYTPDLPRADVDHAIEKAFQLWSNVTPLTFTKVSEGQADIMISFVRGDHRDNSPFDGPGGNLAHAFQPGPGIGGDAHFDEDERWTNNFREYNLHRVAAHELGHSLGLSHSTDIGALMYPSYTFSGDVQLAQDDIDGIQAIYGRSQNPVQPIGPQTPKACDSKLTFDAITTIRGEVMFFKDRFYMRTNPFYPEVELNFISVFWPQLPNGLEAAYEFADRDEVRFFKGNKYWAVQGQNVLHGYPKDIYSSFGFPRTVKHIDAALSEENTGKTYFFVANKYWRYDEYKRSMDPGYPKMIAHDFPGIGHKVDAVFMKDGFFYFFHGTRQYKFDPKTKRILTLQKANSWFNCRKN

[4] = molecular target: T2, Adenosine receptor A3 (Homo sapiens, UniProt P0DMS8); type: cell membranes, CHO-K1, Membrane; settings: cho-k1;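 further: radioligand binding assay with AB-MECA serving as the labeled ligand; in other assays of this panel Not Active means under 50% inhibition at 10 µM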
T2 sequence (P0DMS8 whole entry): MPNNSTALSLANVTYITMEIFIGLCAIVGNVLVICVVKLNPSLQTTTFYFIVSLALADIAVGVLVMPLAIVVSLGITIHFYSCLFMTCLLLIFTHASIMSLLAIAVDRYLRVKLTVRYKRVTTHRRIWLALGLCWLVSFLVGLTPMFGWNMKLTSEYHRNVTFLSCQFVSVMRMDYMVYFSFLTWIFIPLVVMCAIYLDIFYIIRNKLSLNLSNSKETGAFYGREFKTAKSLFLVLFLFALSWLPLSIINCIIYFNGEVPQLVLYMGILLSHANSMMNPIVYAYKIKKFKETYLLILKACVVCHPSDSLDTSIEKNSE

[5] = DRUGMATRIX: Glutamate, AMPA radioligand binding (ligand: [3H] AMPA); type: cell membranes, Rattus norvegicus, Wistar, Cerebral cortex, Membrane; settings: Not Active = under 50% inhibition at 10 µM
[6] = molecular target: Histamine H2 receptor (Homo sapiens, UniProt P25021); type: cell membranes, CHO-K1, Membrane; settings: cho-k1; further: in other assays of this panel Not Active means under 50% inhibition at 10 µM
Histamine H2 receptor, sequence (P25021 whole entry): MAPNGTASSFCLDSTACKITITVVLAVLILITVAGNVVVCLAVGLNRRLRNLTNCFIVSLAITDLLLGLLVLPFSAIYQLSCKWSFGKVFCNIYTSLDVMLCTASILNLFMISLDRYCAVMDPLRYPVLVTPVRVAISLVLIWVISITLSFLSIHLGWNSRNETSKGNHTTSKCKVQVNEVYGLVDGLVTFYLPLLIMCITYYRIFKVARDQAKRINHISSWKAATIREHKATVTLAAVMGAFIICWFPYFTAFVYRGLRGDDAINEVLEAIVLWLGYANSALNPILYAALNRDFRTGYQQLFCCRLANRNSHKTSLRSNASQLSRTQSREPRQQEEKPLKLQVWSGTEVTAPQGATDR

Prostaglandin G/H synthase 1, sequence (P23219 whole entry): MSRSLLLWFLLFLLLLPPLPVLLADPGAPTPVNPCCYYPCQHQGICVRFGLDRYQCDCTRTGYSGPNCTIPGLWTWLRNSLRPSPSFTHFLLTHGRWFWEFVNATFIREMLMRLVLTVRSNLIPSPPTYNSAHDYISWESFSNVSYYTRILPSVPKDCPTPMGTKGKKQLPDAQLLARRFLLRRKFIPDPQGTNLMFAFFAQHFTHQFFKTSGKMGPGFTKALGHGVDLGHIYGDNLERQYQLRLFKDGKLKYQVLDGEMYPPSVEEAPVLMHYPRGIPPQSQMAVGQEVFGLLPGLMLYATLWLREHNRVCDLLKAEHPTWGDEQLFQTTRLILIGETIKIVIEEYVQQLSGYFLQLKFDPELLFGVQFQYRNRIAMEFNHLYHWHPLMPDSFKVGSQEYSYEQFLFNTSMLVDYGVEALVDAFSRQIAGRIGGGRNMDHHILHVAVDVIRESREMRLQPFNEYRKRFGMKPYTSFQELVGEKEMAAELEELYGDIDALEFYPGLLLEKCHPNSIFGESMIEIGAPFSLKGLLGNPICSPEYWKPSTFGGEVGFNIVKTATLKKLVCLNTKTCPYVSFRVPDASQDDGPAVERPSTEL

Compound	IC50 [1]	Ki [1]	IC50 ([2]; platelet)	IC50 [3]	IC50 [4]	IC50 [5]	Ki [5]	IC50 [6]	IC50 ([2]; read-out: IC50) [µM]	Ki ([2]; platelet)	Ki [3]	Ki [4]	Ki [6]
CCn1cc(C(=O)O)c(=O)c2cc(F)c(N3CCNCC3)cc21 [NORFLOXACIN]	Not Active	Not Active	Not Active	Not Active	Not Active	Not Active	Not Active	Not Active					
Cc1c(O)c(=O)ccn1C [DEFERIPRONE]	Not Active	Not Active	Not Active	Not Active	Not Active	Not Active	Not Active	Not Active					
NC1=NC(=O)C(c2ccccc2)O1 (stereo unspecified) [PEMOLINE]	Not Active	Not Active	Not Active	Not Active	Not Active	Not Active	Not Active	Not Active					
Sc1ncnc2nc[nH]c12 [MERCAPTOPURINE ANHYDROUS]	Not Active	Not Active		Not Active	Not Active	Not Active	Not Active	Not Active	16.2				
COCCc1ccc(OCC(O)CNC(C)C)cc1 (stereo unspecified) [METOPROLOL]	Not Active	Not Active	Not Active	Not Active	Not Active	Not Active	Not Active	Not Active					
O=c1[nH]c(=O)n([C@H]2C[C@H](O)[C@@H](CO)O2)cc1I [IDOXURIDINE]	Not Active	Not Active	Not Active	Not Active	Not Active	Not Active	Not Active	Not Active					
CNNCc1ccc(C(=O)NC(C)C)cc1 [PROCARBAZINE]	Not Active	Not Active	Not Active	Not Active	Not Active	Not Active	Not Active	Not Active					
CC(C)C(=O)Nc1ccc([N+](=O)[O-])c(C(F)(F)F)c1 [FLUTAMIDE]	Not Active	Not Active	Not Active	Not Active	Not Active	Not Active	Not Active	Not Active					
LEAD (II) ACETATE	Not Active	Not Active	Not Active	Not Active	Not Active	Not Active	Not Active	Not Active		Not Active	Not Active	Not Active	Not Active
C[C@H]1c2cccc(O)c2C(=O)C2=C(O)[C@]3(O)C(=O)C(C(N)=O)=C(O)[C@@H](N(C)C)[C@@H]3[C@@H](O)[C@@H]21.O [DOXYCYCLINE]	Not Active	Not Active	Not Active	Not Active	Not Active	Not Active	Not Active	Not Active					
COc1ccc(C[C@H]2NC[C@H](O)[C@H]2OC(C)=O)cc1 [ANISOMYCIN]	Not Active	Not Active	Not Active	Not Active	Not Active	Not Active	Not Active	Not Active		Not Active	Not Active	Not Active	Not Active
